# Measured values: patent US20240245633A1, “ROR Gamma Agonists as Enhancers of Protective Immunity” (University of Florida Research Foundation, Incorporated, priority 2015, published 2024)
# Marks after values point to notes of the source that are not given here.
# Key:
# [1] = target: T1, RORγ LBD / SRC1-3 NR box peptide (Homo sapiens, UniProt P51449); test: NR box peptide interaction assay (TR-FRET); type: biochemical; details: concentration response
# T1 sequence (P51449 269-508 limits assumed): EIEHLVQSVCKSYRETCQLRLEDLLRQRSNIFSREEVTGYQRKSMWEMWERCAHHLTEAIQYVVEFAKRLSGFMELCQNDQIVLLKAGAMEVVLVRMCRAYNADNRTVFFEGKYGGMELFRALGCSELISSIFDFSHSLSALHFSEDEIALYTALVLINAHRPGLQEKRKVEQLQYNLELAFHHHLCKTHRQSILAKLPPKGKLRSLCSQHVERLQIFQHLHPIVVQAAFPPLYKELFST
# Method: NR box peptide interaction assay. A TR-FRET-based interaction assay was used. […] The mixtures were incubated for 2 hr at R.T., and fluorescence intensity was measured on an Envision pate reader with excitation at 340 nm and emission at 490 nm and 520 nm. The ratio of intensity at 520 nm/490 nm was used to calculate cofactor recruitment activity.
# [2] = target: T2, RORγt LBD pretreated with ursolic acid (Homo sapiens, UniProt P51449); test: Differential HDX-MS of RORγt pretreated with ursolic acid ± compound; type: binding
# T2 construct: 5 μL of a 10 μM RORγt LBD solution (Apo or in complex with 10-excess compound)
# T2 sequence (P51449 269-508 limits assumed): T1 sequence (P51449 269-508 limits assumed)
# Text: While the mechanism of action of RORγt agonists on regulation of the immune checkpoint receptor PD-1 is unclear, a correlation between RORγt and PD-1 expression has been observed in PD-1 knockout mice Z Regardless, to gain insights into the structural mechanism for agonist activity we examined the impact of putative agonist ligands on the conformational dynamics of RORγt. To achieve this, we utilized differential hydrogen/deuterium exchange (HDX) mass spectrometry.
# HDX-MS. Solution-phase amide HDX was performed with a fully automated system as described previously with minor modifications^30,31. For differential HDX experiments, 5 μL of a 10 μM RORγt LBD solution (Apo or in complex with 10-excess compound) was diluted to 25 μL with D20-containing HDX buffer, and incubated at 4° C. for; 10 s, 30s, 60s, 900s, and 3,600s, Following on-exchange, unwanted forward or back exchange is minimized and the protein is denatured by dilution to 50 μL with 0.1% TFA in 3M urea (held at 4° C., pH 2.5). Samples are then passed across an immobilized pepsin column (prepared in house) at 50 μL min−1 (0.1% TFA, 15° C.) and the resulting peptides are trapped onto a Ce trap cartridge (Thermo Fisher, Hypersil Gold). Peptides were then gradient eluted (4% CH3CN to 40% CH3CN, 0,3% formic acid over 5 minutes, 4° C.) across a 1 mm×50 mm Cia HPLC column (Hypersil Gold, Thermo Fisher) and electrosprayed directly into a high resolution orbitrap mass spectrometer (Exactive, Thermo Fisher). Percent deuterium exchange values for peptide isotopic envelopes at each time point were calculated and processed using HDX Workbench^32 and overlaid onto RORγt crystal structures using pyMOL (DeLano Scientific). HDX data is presented as an average of three individual replicates across […] time points (10s, 60s, 300s, 900s, and 3600s).
# RORγt = target: T3, RORγt (Homo sapiens, UniProt P51449); details: Circular Dichroism; cited from earlier work
# T3 sequence (P51449 1-497 isoform P51449-2): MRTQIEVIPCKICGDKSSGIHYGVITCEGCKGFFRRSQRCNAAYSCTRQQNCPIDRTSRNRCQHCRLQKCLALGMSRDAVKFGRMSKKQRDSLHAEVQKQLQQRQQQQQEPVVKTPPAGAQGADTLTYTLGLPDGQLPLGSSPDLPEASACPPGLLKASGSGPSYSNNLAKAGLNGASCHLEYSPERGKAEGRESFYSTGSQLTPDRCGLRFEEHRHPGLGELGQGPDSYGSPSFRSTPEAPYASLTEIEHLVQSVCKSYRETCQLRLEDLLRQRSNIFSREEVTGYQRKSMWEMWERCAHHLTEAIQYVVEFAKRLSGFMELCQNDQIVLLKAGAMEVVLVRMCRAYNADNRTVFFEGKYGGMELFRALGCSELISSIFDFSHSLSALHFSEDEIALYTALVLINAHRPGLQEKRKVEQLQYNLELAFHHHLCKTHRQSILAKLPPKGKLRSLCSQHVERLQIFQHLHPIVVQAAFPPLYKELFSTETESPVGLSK
# [3] = system: ROR target genes FGF21 and G6Pase; details: in cells and in vivo; cited from earlier work
# [4] = target: ligand binding domain (LBD) of RORγt (Homo sapiens, UniProt P51449); details: read-out: IC50, competitive radioligand binding; cited from earlier work
# Gal4-RORγ = target: T4, Gal4-RORγ (Homo sapiens, UniProt P51449); test: cell-based; details: HEK-293T, read-out: fold induction of reporter gene expression
# T4 sequence (P51449 269-508 limits assumed): T1 sequence (P51449 269-508 limits assumed)
# EL4 T lymphocytes = test: qPCR gene expression in PMA/ionomycin stimulated EL4 cells; type: cell-based, murine; details: PMA/ionomycin 5 hr
# Method: Here we used murine EL4 T lymphocytes or human Jurkat T cells as model systems to analyze gene expression upon T cell activation. Following treatment of cells with Phorbol 12-myristate 13-acetate (PMA) and ionomycin, the expression of granzyme B (cytotoxicity marker), PD-1 (immune checkpoint) and the RORγt target gene IL17 were analyzed by qPCR.
# (§1) Gene expression and Cell sorting. Jurkat T cells were pre-incubated with compounds for 48 hr and activated with phorbol 12-myristate 13-acetate (PMA, 50 ng/mL; Sigma) and ionomycin (1 μg/mL; Sigma) for 5 hr. For qPCR, mRNA was isolated with an RNeasy midi kit using DNase I (Qiagen), and cDNA was synthesized with high capacity cDNA Reverse Transcription kit (Applied Biosystems). IL17A, PD-1, and granzyme B gene expression were normalized to the expression of GAPDH. The sequence of primers used in this study are found in Table 2. For cell sorting, activated Jurkat T cells were stained with APC conjugated anti-human PD-1 antibody (eBioscience). Cell sorting was performed using LSRII (BD Bioscience).
# EL4 cells = test: PD-1 surface expression in EL4 cells by flow cytometry; type: cell-based, murine; details: compound 48 hr
# Method: (§2) Using flow cytometery surface PD-1 expression was analyzed to determine if the decrease in gene expression of PD-1 correlates to a decrease of the protein on the cell surface, Cell: surface PD-1 expression was measured in murine and human T cell lines as well as in ex vivo differentiated murine TH17 cells. […] Next we examined the impact of compound treatment on differentiated murine TH17 cells. […] To determine if there was an increase in the active T cell population during TH17 cell differentiation, the population of CD62L^−PD1^− double negative cells was measured using flow cytometry. […] To determine if the effects of SR0987 on PD-1 expression would be observed in a human cell line, Jurkat T cells were treated with the compound.
# as §1, with “Cell sorting was performed using LSRII (BD Bioscience).” left out
# [5] = system: differentiated TH17 cells; test: TH17 cell differentiation, flow cytometry; type: cell-based, murine
# Method: as §2
# TH17 cell differentiation. For naïve T cell differentiation, CD4^+T cells were enriched by negative selection using a magnetic-activated cell sorter kit (Millipore). Enriched CD4+ T cells activated with 5 μg/mL of plate-abound anti CD3 antibody and 1 μg/mL of anti-CD28 antibody in the presence of 20 μg/mL of anti-IFNγ, 20 μg/mL of anti-IL-4, 1 ng/mL of TGFβ, AND 10 ng/mL of IL-6. Four-five days post differentiation, all cells were stimulated for 5 hr with 5 ng/mL of phorbol-12-myristate-13-acetate (Sigma) and 500 ng/mL of ionomycin (Sigma) contained with brefeldin A solution (eBioscience).
# Jurkat T cells = test: PD-1 surface expression in Jurkat T cells; type: cell-based, human
# Method: as §2
# as §1, with “Cell sorting was performed using LSRII (BD Bioscience).” left out
structure (smiles),measurement,setting,value
O=C(Nc1ccc(C(O)(C(F)(F)F)C(F)(F)F)cc1)c1ccc(C(F)(F)F)cc1 [SR1078],interaction of RORγt with SRC1-3 NR box peptide,[1],concentration dependent increase in interaction
same,protection to solvent exchange in H12,"[2]; RORγt exposed to ursolic acid, then compound",induced protection to solvent exchange in H12
same,"Differential HDX kinetics, peptide TEIEHLVQ","[2]; UA pretreated, 268-275, charge 2, H1",−2(3)*
same,"Differential HDX kinetics, peptide TEIEHLVQSVC","[2]; UA pretreated, 268-278, charge 2, H1",0(3)*
same,"Differential HDX kinetics, peptide TEIEHLVQSVCKS","[2]; UA pretreated, 268-280, charge 3, H1",1(4)*
same,"Differential HDX kinetics, peptide TEIEHLVQSVCKSYRETCQ","[2]; UA pretreated, 268-286, charge 3, H1",0(3)*
same,"Differential HDX kinetics, peptide TEIEHLVQSVCKSYRETCQ","[2]; UA pretreated, 268-286, charge 4, H1",1(3)*
same,"Differential HDX kinetics, peptide RLEDL","[2]; UA pretreated, 288-292, charge 1, H2",−2(4)*
same,"Differential HDX kinetics, peptide RLEDLL","[2]; UA pretreated, 288-293, charge 1, H2",−3(5)*
same,"Differential HDX kinetics, peptide EVTGYQRKSMWEM","[2]; UA pretreated, 304-316, charge 2, H3/H4",1(4)*
same,"Differential HDX kinetics, peptide WERCAHHLTEAIQ","[2]; UA pretreated, 317-329, charge 3, H4",0(1)*
same,"Differential HDX kinetics, peptide WERCAHHTEAIQY","[2]; UA pretreated, 317-330, charge 3, H4",1(1)*
same,"Differential HDX kinetics, peptide WEGAKRLSGF","[2]; UA pretreated, 331-341, charge 2, H4/H5",0(2)*
same,"Differential HDX kinetics, peptide FAKRLSGF","[2]; UA pretreated, 334-341, charge 2, H4/H5",0(2)*
same,"Differential HDX kinetics, peptide CQNDQM","[2]; UA pretreated, 345-352, charge 1, H5/H6",0(1)*
same,"Differential HDX kinetics, peptide CRAYNADNRTVF","[2]; UA pretreated, 368-377, charge 2, B1",2(1)*
same,"Differential HDX kinetics, peptide YNADNRTVF","[2]; UA pretreated, 369-377, charge 2, B1",1(3)*
same,"Differential HDX kinetics, peptide FEGKYGGMEL","[2]; UA pretreated, 378-387, charge 2, B2/H7",2(3)*
same,"Differential HDX kinetics, peptide FRALGCSEL","[2]; UA pretreated, 388-395, charge 2, H7/H8",−1(2)*
same,"Differential HDX kinetics, peptide LISSIFDFSHSLSAL","[2]; UA pretreated, 396-410, charge 2, H8",2(2)*
same,"Differential HDX kinetics, peptide ISSIFD","[2]; UA pretreated, 397-407, charge 1, H8",1(2)*
same,"Differential HDX kinetics, peptide ISSIFDFSHSLSAL","[2]; UA pretreated, 397-410, charge 2, H8",2(2)*
same,"Differential HDX kinetics, peptide IFDFSHSLSAL","[2]; UA pretreated, 400-410, charge 2, H8",3(2)*
same,"Differential HDX kinetics, peptide DFSHSKSAL","[2]; UA pretreated, 402-410, charge 2, H8",2(2)*
same,"Differential HDX kinetics, peptide FSHSLSAL","[2]; UA pretreated, 403-410, charge 2, H8",2(3)*
same,"Differential HDX kinetics, peptide AXLPPXGKLRSLCSQ","[2]; UA pretreated, 454-478, charge 3, H11",0(4)*
same,"Differential HDX kinetics, peptide HVERLQIFQHLHPIWQ","[2]; UA pretreated, 479-495, charge 2, H11",−6(3)*
same,"Differential HDX kinetics, peptide AAFPPLYKEL","[2]; UA pretreated, 496-505, charge 2, H12",−7(2)*
same,"Differential HDX kinetics, peptide AAFPPLYKELF","[2]; UA pretreated, 496-506, charge 2, H12",−5(2)*
same,"Differential HDX kinetics, peptide HFSEDEIAL","[2]; UA pretreated, charge 2, H9",0(1)*
same,"Differential HDX kinetics, peptide QIFQHLHPIWQ","[2]; UA pretreated, charge 2, H11",−10(3)*
same,"Differential HDX kinetics, peptide TEIEHLVQSVCKSYRETCQL","[2]; UA pretreated, charge 3, H1",0(4)*
same,"Differential HDX kinetics, peptide VRMCRAYNADNRTVF","[2]; UA pretreated, charge 3, H6/B1",1(1)*
same,interaction with RORγt via thermal shift assay,RORγt,direct interaction
same,expression of ROR target genes FGF21 and G6Pase,[3],induced the expression of the ROR target genes FGF21 and G6Pase
same,IC50,[4],~15 µM
same,fold induction at 30 µM,Gal4-RORγ,≥ 2
"O=C(Nc1ccc(C(O)(C(F)(F)F)C(F)(F)F)cc1)c1ccccc1Cl [SR0987, 2-chloro-N-(4-(1,1,1,3,3,3-hexafluoro-hydroxypropan-2-yl)phenyl)benzamide]",IL17 mRNA expression,EL4 T lymphocytes,further increase in expression of IL17
same,PD-1 mRNA expression,EL4 T lymphocytes,decrease in expression of PD-1
same,granzyme B mRNA expression,EL4 T lymphocytes,did not impact the expression of granzyme B
same,surface expression of PD-1,EL4 cells,statistically significant reduction of the surface expression of PD-1
same,CD62L−PD1−CD4+ cell population,[5]; compared to DMSO treated cells,statistically significant increase
same,IL17 production (intracellular staining of IL17A),[5]; murine TH17 cells,trend towards increased IL17 production
same,surface PD-1 expression,[5]; murine TH17 cells,repress surface PD-1 expression
same,cell surface PD-1 expression,Jurkat T cells,decreased cell surface PD-1 expression
